Laboratory results published in ChEMBL document CHEMBL1145858, “Synthesis and structure-activity studies of novel orally active non-terpenoic 2,3-oxidosqualene cyclase inhibitors” (J Med Chem, 2003).

Key:
Lanosterol synthase [1] = biological target: T1, Lanosterol synthase (Homo sapiens, UniProt P48449)
T1 sequence (P48449 whole entry): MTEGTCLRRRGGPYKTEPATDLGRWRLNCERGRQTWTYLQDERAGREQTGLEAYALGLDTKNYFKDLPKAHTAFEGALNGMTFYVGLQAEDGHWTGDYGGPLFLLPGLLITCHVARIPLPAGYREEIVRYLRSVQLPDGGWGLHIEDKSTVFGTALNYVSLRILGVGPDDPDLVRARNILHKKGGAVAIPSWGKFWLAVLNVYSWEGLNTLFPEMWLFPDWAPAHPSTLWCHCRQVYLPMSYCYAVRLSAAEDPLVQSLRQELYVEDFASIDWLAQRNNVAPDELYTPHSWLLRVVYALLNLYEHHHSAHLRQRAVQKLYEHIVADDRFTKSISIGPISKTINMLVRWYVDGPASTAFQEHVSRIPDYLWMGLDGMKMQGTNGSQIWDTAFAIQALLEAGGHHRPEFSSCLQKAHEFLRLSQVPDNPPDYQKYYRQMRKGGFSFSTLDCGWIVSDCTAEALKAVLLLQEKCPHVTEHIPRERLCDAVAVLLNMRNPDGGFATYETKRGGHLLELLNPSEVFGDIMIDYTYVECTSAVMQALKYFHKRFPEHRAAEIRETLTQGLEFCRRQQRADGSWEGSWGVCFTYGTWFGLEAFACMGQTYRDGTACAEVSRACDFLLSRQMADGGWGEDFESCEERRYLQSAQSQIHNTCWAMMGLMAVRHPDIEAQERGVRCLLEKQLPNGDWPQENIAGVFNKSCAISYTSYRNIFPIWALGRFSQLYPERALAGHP

[2] = biological target: T2, Lanosterol synthase (Homo sapiens) (UniProt P48449); conditions: at 100 nM
T2 sequence (whole entry): T1 sequence (P48449 whole entry)

Cricetinae gen. sp. [3] = assay: […] effect on LDL cholesterol (LDL-C) level in fat-fed hamsters treated for 10 days at 200 umol/kg/day; type: functional, Cricetulus griseus
Cricetinae gen. sp. [4] = assay: […] effect on total plasma cholesterol(TC) level in fat-fed hamsters treated for 10 days at 200 umol/kg/day; type: functional, Cricetulus griseus
Lanosterol synthase [5] = biological target: T1, Lanosterol synthase; assay: In vitro inhibition of human 2,3-oxidosqualene cyclase.

| Structure (SMILES) | IC50 (Lanosterol synthase [1]) [nM] | LDL-C (Cricetinae gen. sp. [3]) [%] | also measured |
| --- | --- | --- | --- |
| C=CCN(C)CCCCCCOc1ccc2c(c1)OCC=C2c1ccc(Br)cc1 | 11.4 | – | – |
| C=CCN(C)CCCCCCOc1ccc(-c2nsc3cc(Br)ccc23)cc1 | – | – | inhibition [2]: 5% |
| C=CCN(C)CCCCCCOc1ccc(C(=O)c2ccc(Br)cc2)c(F)c1.O=C(O)/C=C/C(=O)O | – | -27 | TC (Cricetinae gen. sp. [4]): -41% |
| C=CCN(C)CCCCCCOc1ccc(C(=O)c2ccc(Br)cc2)c(NC)c1 | 4.1 | – | – |
| C=CCN(C)CCCCCCOc1ccc(C(=O)c2ccc(Br)cc2)c(SC)c1 | 6.2 | – | – |
| C=CCN(C)CCCCCCOc1ccc(C(=O)c2ccc(Br)cc2)cc1.O=C(O)/C=C/C(=O)O | – | -25 | pKa (physchem): 8.18; TC (Cricetinae gen. sp. [4]): -27% |
| C=CCN(C)CCCCCCOc1ccc2c(c1)S(=O)(=O)N=C2c1ccc(Br)cc1 | 7.8 | – | – |
| C=CCN(C)CCCCCCOc1ccc2c(-c3ccc(Br)cc3)noc2c1 | – | – | inhibition [2]: 21% |
| C=CCN(C)CCCCCCOc1ccc2c(c1)CCN=C2c1ccc(Br)cc1 | 7.9 | – | – |
| CN(CCCCCCOc1ccc(C(=O)c2ccc(Br)cc2)cc1)CC1CC1 | – | – | pKa (physchem): 9.37 |
| C=CCN(C)CCCCCCOc1ccc(C(=O)c2ccc([N+](=O)[O-])cc2)cc1 | – | – | IC50 (Lanosterol synthase [5]): 1.9 nM |
| Br.C=CCN(C)CCCCCCOc1ccc(C(=O)c2ccccc2)cc1 | 22.5 | -12 | – |
| C=CCN(C)CCCCCCOc1ccc(C(=O)c2ccc(F)cc2)cc1.Cl | 6.7 | -24 | TC (Cricetinae gen. sp. [4]): -40% |
| C=CCN(C)CCCCCCOc1ccc2c(-c3ccc(Br)cc3)coc2c1 | – | – | inhibition [2]: 14% |
| C=CCN(C)CCCCCCOc1ccc2c(c1)CON=C2c1ccc(Br)cc1.O=C(O)/C=C/C(=O)O | – | -3 | – |
| C=CCN(C)CCCCCCOc1ccc2c(-c3ccc(Br)cc3)csc2c1 | 5.6 | – | – |
| C=CCN(C)CCCCCCOc1ccc2c(-c3ccc(Br)cc3)nsc2c1.O=C(O)/C=C/C(=O)O | – | -33 | TC (Cricetinae gen. sp. [4]): -36% |
| C=CCN(C)CCCCCCOc1ccc2c(-c3ccc(Br)cc3)nccc2c1.Cl | – | -14 | – |

The next lines start with results.

| IC50 (Lanosterol synthase [1]) [nM] | Structure (SMILES) | LDL-C (Cricetinae gen. sp. [3]) [%] | also measured |
| --- | --- | --- | --- |
| 15.7 | CN(CCCO)CCCCCCOc1ccc(C(=O)c2ccc(Br)cc2)cc1 | – | pKa (physchem): 9.05 |
| 6.3 | C=CCN(C)CCCCCCOc1ccc(C(=O)c2ccc(Br)cc2)c(O)c1 | – | – |
| 35.3 | CN(CCCCCCOc1ccc(C(=O)c2ccc(Br)cc2)cc1)C1CC1 | – | pKa (physchem): 7.48 |
| 4.6 | C=CCN(C)CCCCCCOc1ccc(C(=O)c2ccc(Br)cc2)c(OC)c1 | – | – |
| 8.7 | C=CCN(C)CCCCCCOc1ccc(C(=O)c2ccc(Br)cc2)cn1 | – | – |
